In US20240024509A1, “COMPOSITIONS AND METHODS FOR TREATING CEREBROSPINAL FLUID DISORDERS” (The Children's Medical Center Corporation, priority 2021, published 2024):

Experiments:
[1] = test system: choroid plexus (ChP) epithelial cells; experiment: Calcium imaging of LV ChP explants exposed to plasma; assay type: cell-based, mouse; conditions: LV ChP explant, FoxJ1-Cre::GCaMP6f mice
Method: […] Imaging and analyses were performed as described (12). Plasma (using citrate as anti-coagulant instead of EDTA, same protocol as described above) was delivered to explants by topical application from a glass capillary needle and serum was delivered to the lateral ventricle of live mice during imaging through the injection cannula. Serum was prepared by collecting blood using the same approach as described above, incubating on ice for 30 min. and then centrifuging for 10 min. at 5,000 g twice to separate the supernatant.

[2] = test system: intraventricular hemorrhage (IVH) model; experiment: E14.5 IVH model with calcium signaling disruption (LiCl pretreatment or EDTA), MRI and infusion test; assay type: in vivo, mouse
Text: Timed pregnant mice (E14.5) were anesthetized with isoflurane and kept warm. Following laparotomy, AAV solution or age-matched whole blood was delivered into the lateral ventricle of each embryo (located visually) using glass capillary pipettes. The uterine horns were returned to the abdomen and the incisions sutured. When age-matched whole blood was used, the donor mouse was anesthetized with ketamine/xylazine and warmed. Fresh blood was obtained from the jugular veins with a glass capillary pipette and immediately delivered to the recipient.
Mice were imaged using Bruker BioSpec small animal MRI (7T) at P14 or P25 while under anesthesia by isoflurane. A warm pad was used to maintain body temperature. Breathing rate and heart rate were monitored to reflect the depth of anesthesia. All T2 images were acquired using the following criteria: TE/TR=60/4000; Ave=4; RARE=4; slice thickness=0.6 mm.
Constant aCSF infusion testing was performed as previously described (23). In summary, a single catheter was implanted into the lateral ventricle of a mouse under anesthesia. The catheter infused aCSF at a constant rate and monitored intracranial pressure (ICP). The Marmarou model of cerebrospinal fluid (CSF) dynamics for constant rate infusions were used to calculate parameters describing cerebrospinal fluid (CSF) dynamics by a non-linear least squares fit of the model to the intracranial pressure (ICP) data (62).

NKCC1 = experiment: LiCl ICV pretreatment in adult IVH model, ChP pNKCC1 immunoblot; assay type: in vivo, mouse; conditions: adult mice; ICV LiCl 50 mM, 5 μL, 30 min. prior to blood; after 48 hrs
Text: P4: pups were anesthetized by hypothermia. An incision was made along the midline of the scalp to expose the skull. A 26 G needle was used to pierce the skull directly above the lateral ventricle. AAV solution or age-matched whole blood was delivered into the lateral ventricle through the piercing using glass capillary pipettes. The skin incision was closed with suture and Vetbond (3M, Minnesota). The pup was warmed and returned to cage after recovery. Whole blood was collected transcardially from littermates anesthetized by hypothermia. Adult: adult intracerebroventricular (ICV) injection followed similar procedures as P4 with the following exceptions: (1) adult mice were anesthetized using isoflurane; (2) a hand drill was used directly above the lateral ventricle; (3) blood donor was anesthetized using ketamine/xylazine.
Tissues were quickly dissected in cold HBSS and homogenized in RIPA buffer supplemented with protease and phosphatase inhibitors. The homogenate was centrifuged at maximum speed for 10 min. to remove cellular debris. Protein concentration was determined by BCA assay (Thermo Scientific 23227). Samples were denatured in 2% SDS supplemented with 2-Mercaptoethanol by heating at 37° C. for 5 min. […] Band intensity was quantified by FIJI.

NCCOB(c1ccccc1)c1ccccc1 [2-APB, 2-aminoethoxydiphenyl borate]
epifluorescence calcium responses to plasma [1]: disrupted

O=C(O)CN(CC(=O)O)c1ccccc1OCCOc1ccccc1N(CC(=O)O)CC(=O)O [BAPTA]
epifluorescence calcium responses to plasma [1]: disrupted

O=C(O)CN(CCN(CC(=O)O)CC(=O)O)CC(=O)O [EDTA, ethylenediaminetetraacetic acid]
ventriculomegaly ([2]; E14.5, ICV injection of blood containing EDTA, 3 weeks after the injection): severe ventriculomegaly | epifluorescence calcium responses to plasma [1]: disrupted

O=C(O)CN(CCOCCOCCN(CC(=O)O)CC(=O)O)CC(=O)O [EGTA, ethylene glycol-bis(β-aminoethyl ether)-N,N,N′,N′-tetraacetic acid]
epifluorescence calcium responses to plasma [1]: disrupted

[Cl-].[Li+] [LiCl, lithium chloride]
ventriculomegaly ([2]; E14.5, ICV LiCl 30 min. prior to blood, vs controls, MRI): more pronounced ventriculomegaly | ventricular enlargement in two extreme cases ([2]; E14.5, LiCl pretreatment plus blood): over 200 fold | baseline intracranial pressure (ICP) ([2]; LiCl pretreatment alone): does not change | compliance ([2]; LiCl pretreatment alone): does not change | ventricle size ([2]; LiCl treatment alone): did not affect ventricle size | intracranial pressure (ICP) ([2]; LiCl-Blood mice compared to LiCl-PBS mice): unaltered | epifluorescence calcium responses to plasma [1]: disrupted | NKCC1 phosphorylation rate (pNKCC1) (NKCC1): decreased NKCC1 phosphorylation rate
